In patent US5753694A, “Anticonvulsant derivatives useful in treating amyotrophic lateral sclerosis (ALS)” (Ortho Pharmaceutical Corporation, priority 1997, dated 1998):
Like-named read-outs stand apart in the source and are kept apart here. One block for each compound: values may come before it.

Tests used:
human epilepsy = settings: clinical trials of human epilepsy; cited from earlier work
[1] = test system: animal model of kindled epilepsy; settings: cited from earlier work
[2] = test system: rodent models of epilepsy; settings: several rodent models of epilepsy; cited from earlier work
[3] = test system: AMPA/kainate subtype of glutamate receptors; assay: Antagonism of kainate-evoked currents, perforated whole-cell patch-clamp on primary cultures of hippocampal neurons; assay type: cell-based, rat; settings: for EC50: cultured fetal rat hippocampal neurons
Procedure: Johnson Pharmaceutical Research Institute, Internal Research Reports, Document ID Accession Numbers A500,960 and 398533:1). In these studies, primary cultures enriched in neurons derived from the hippocampus of fetal rats were grown in vitro for 14 to 21 days under conditions that allowed them to reach a high density and develop numerous synaptic contacts. Perforated whole-cell patch-clamp procedures were used to study electrical properties of the neuronal membranes. In this procedure electrical contact between the recording electrode and the intracellular fluid is achieved by using amphotericin B to form pores in the cell membrane. This enables the cell membrane potential or current flow across the cell membrane to be recorded accurately. Kainate, topiramate and other test compounds were microperfused onto the neurons using a multi-barrel Teflon concentration clamp pipette. Topiramate (dissolved in DMSO at 1M, then diluted in the medium in which the neurons were incubated) was applied at concentrations of […] kainate was applied at concentrations 0.1 or 1 mM.
In an initial set of experiments, the antagonistic action of topiramate on kainate-evoked currents was determined as a function of the membrane potential.
The time-course of topiramate's antagonistic activity was evaluated in a second set of experiments. Kainate was pulsed into the bathing fluid for 3 sec at 1 min intervals, and once a baseline for the kainate-evoked current was established topiramate was applied constantly for a period ranging from a few min to 20 min. […] Concentration-response curves were generated for both phases of topiramate's blocking effect. The EC50 was approximately 1 micromolar for each phase. However, the concentration required for a maximum response was approximately 0.1 mM for the first phase (phase I block) but only approximately 0.010 mM for second (phase II block).
Because of the compelling evidence that the functional state of glutamate receptors is regulated partly by protein kinases and phosphatases (L. Y. WANG, F. A. TAVERNA, X. P. HUANG, J. F. MACDONALD, and D. R. HAMPSON, Science 259, 1173-1175, 1993), the phase II blocking effect could be explained by dephosphorylation of the kainate-activated receptors. Based on evidence that cAMP-dependent protein kinase (PKA) modulates kainate activated receptors(L. Y. WANG, F. A. TAVERNA, X. P. HUANG, J. F. MACDONALD, and D. R. HAMPSON, Science 259, 1173-1175, 1993), a set of experiments was undertaken to determine if dibutyryl cyclic AMP could restore the excitatory activity of kainate subsequent to topiramate's phase II block; i.e., cause the "irreversible" effect to be reversed. […] In another set of experiments the nonspecific phosphatase inhibitor okadaic acid was applied at 1 micromolar prior to, and during, the application of topiramate to determine if inhibiting the dephosphorylation of the kainate activated receptors would prevent the phase II blocking effect of topiramate.

[4] = 1 micromolar, prior to and during topiramate

EC50 ([3]; phase I block (early, reversible), read-out: EC50 of block of kainate-evoked current, first phase (phase I block)): ~1000 nM | EC50 ([3]; phase II block (constant application more than 10 min), read-out: EC50 of block of kainate-evoked current, second phase (phase II block)): ~1000 nM
SMILES: CC1(C)O[C@@H]2[C@@H](CO[C@@]3(COS(N)(=O)=O)OC(C)(C)O[C@@H]23)O1 [topiramate, 2,3:4,5-bis-O-(1-methylethylidene)-β-D-fructopyranosesulfamate]
efficacy in simple and complex partial seizures and secondarily generalized seizures (human epilepsy): effective as adjunctive therapy or as monotherapy | block of seizures [1]: effectively block seizures | block of seizures [2]: effectively block seizures | onset of partial block of kainate-evoked current ([3]; kainate pulsed 3 sec at 1 min intervals, topiramate applied constantly): evident within one min | concentration required for a maximum response, phase I block ([3]; phase I block): approximately 0.1 mM | concentration required for a maximum response, phase II block ([3]; phase II block): approximately 0.010 mM | magnitude of antagonistic effect on kainate-induced membrane currents after prolonged application ([3]; topiramate applied constantly for more than 10 min): increased markedly | kainate-evoked current after withdrawal following prolonged application ([3]; topiramate applied more than 10 min, then withdrawn): remained depressed | reversibility of early block on washout ([3]; topiramate withdrawn (washed out) within 5 min): readily reversed | dependence of antagonistic effect on membrane potential ([3]; voltage-clamped potentials -60 mV to +60 mV at 20 mV increments): most effective at membrane potentials near the resting state

SMILES: C=C1[C@@H](O)[C@@H]2O[C@]3(CC[C@H](/C=C/[C@@H](C)[C@@H]4CC(C)=C[C@@]5(O[C@H](C[C@@](C)(O)C(=O)O)CC[C@H]5O)O4)O3)CC[C@H]2O[C@@H]1[C@@H](O)C[C@H](C)[C@H]1O[C@@]2(CCCCO2)CC[C@H]1C [okadaic acid]
effect on kainate-evoked current prior to application of topiramate ([3]; 1 micromolar): little effect | effect on topiramate's initial antagonistic effect (phase I block) [3, 4]: did not affect | effect on topiramate's phase II block [3, 4]: phase II block was prevented

SMILES: CCCC(=O)Nc1ncnc2c1ncn2[C@@H]1O[C@@H]2COP(=O)(O)O[C@H]2[C@H]1OC(=O)CCC [dibutyryl cyclic AMP]
restoration of kainate-evoked current after topiramate's phase II block ([3]; applied subsequent to topiramate phase II block): partially or totally restored the kainate-evoked current
